Results taken from ChEMBL document CHEMBL1147821, “P3 and P4 position analysis of vinyl ester pseudopeptide proteasome inhibitors” (Bioorg Med Chem Lett, 2006).

molecular target: T1, Proteasome Macropain subunit MB1 (Homo sapiens, UniProt P28074)
T1 sequence (P28074 whole entry): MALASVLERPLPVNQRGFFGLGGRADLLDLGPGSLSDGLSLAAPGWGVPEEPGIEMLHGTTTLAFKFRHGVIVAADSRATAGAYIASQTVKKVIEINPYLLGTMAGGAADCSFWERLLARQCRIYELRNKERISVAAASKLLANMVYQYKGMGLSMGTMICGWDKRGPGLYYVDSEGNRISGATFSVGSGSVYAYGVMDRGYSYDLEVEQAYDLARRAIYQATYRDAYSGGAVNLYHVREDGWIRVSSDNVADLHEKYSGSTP
Description: Inhibition of chymotrypsin like activity of proteasome

SMILES | IC50 [µM]
CCOC(=O)/C=C/[C@H](CC(C)C)NC(=O)[C@H](CCC(N)=O)NC(=O)[C@@H](NC(=O)[C@@H](N)Cc1ccccc1)C(C)C | 4.15
CCOC(=O)/C=C/[C@H](CC(C)C)NC(=O)[C@H](CCC(N)=O)NC(=O)[C@H](Cc1ccccc1)NC(=O)c1cccc(O)c1C | 2.23
CCOC(=O)/C=C/[C@H](CC(C)C)NC(=O)[C@H](CCC(N)=O)NC(=O)[C@@H](NC(=O)[C@@H](N)Cc1ccc(O)cc1)C(C)C | 4.32

Continued, values first:

IC50 [µM] | SMILES
6.67 | CCOC(=O)/C=C/[C@H](CC(C)C)NC(=O)[C@H](CCC(N)=O)NC(=O)[C@@H](NC(=O)c1cccc(O)c1C)C(C)C
0.061 | CC(C)C[C@@H](/C=C/S(C)(=O)=O)NC(=O)[C@H](CC(C)C)NC(=O)[C@H](CC(C)C)NC(=O)OCc1ccccc1
